{
  "source": "patent US20240299698A1",
  "about": "“PREVENTION AND TREATMENT OF POST-OPERATIVE COGNITIVE DYSFUNCTION (POCD)” (Noetix Pharma LLC, priority 2022, published 2024)",
  "key": {"[1]": {"test": "Stability of pirfenidone dose preparation in vehicle", "format": "physicochemical", "conditions": "0.9% saline", "protocol": "• Vehicle: 0.9% saline • Working concentration: 66.67 mg/ml • Preparation: Add 1000 mg of pirfenidone to 15 mL of 0.9% saline • Stability in vehicle: Stable for a minimum of 8 days\n• Vehicle: 0.9% saline • Working concentration: 33.33 mg/mL • Preparation: Add 12 mL of high dose pirfenidone to 12 mL of 0.9% saline • Stability in vehicle: Stable for a minimum of 8 days"}, "[2]": {"conditions": "healthy subjects; cited from earlier work"}, "mouse model of (POCD)": {"test_system": "mouse model of (POCD)", "test": "Morris water maze testing and probe trial in laparotomy mouse model of POCD", "format": "in vivo, Male C57BI/6 mice", "conditions": "PSD7", "excerpt": "To induce POCD, mice were anesthetized with isoflurane and maintained at a surgical plane of anesthesia (2-2.5%). The abdomen was shaved and cleaned/disinfected with both betadine and ethanol (70%). A 1.5 cm vertical incision was made along the midline of the abdomen, perforating the skin and the peritoneal cavity. A sterile blunt probe was inserted into the cavity, and the abdominal viscera and musculature were manipulated for five minutes. Abdominal muscles and skin were sutured, polysporin and topical lidocaine were applied to the incision site, and buprenorphine (0.1 mg/kg s.c.) was administered. Animals were placed into a clean, pre-warmed home cage for recovery and housed singly thereafter.\nMorris water maze testing is a well-established method for evaluating spatial learning and memory. To navigate this maze, the mouse must use extra-maze cues to locate a hidden platform and escape from the water. Testing was performed on PSD7. Mice were given two blocks of four 60 sec trials to find the hidden platform, with latency to reach the platform compared between blocks as a measure of learning/memory processes. Swim speed was evaluated to assess locomotor capabilities. On PSD8 (i.e., 24 hours later), mice were reintroduced into the maze without the platform present for a one-minute probe trial to assess reference memory.\nThe testing protocol was as follows: 1. The animal was brought into the testing room in a transfer cage. 2. Video recording was begun and the animal's ID card recorded. 3. The mouse was gently placed (i.e., not dropped) into the water at the appropriate start location (N, S, E, or W) facing the pool wall. 4. For 60 seconds, the mouse was allowed to locate and climb onto the submerged platform. If the mouse was unable to locate the platform within the allotted time, it was gently guided there and assigned a score of 61 seconds. 5. The mouse was allowed 60 seconds to recover on the platform and observe the extra-maze cues. If the moused jumped into the water, it was immediately retrieved and placed back on the platform for the remaining duration of the inter-trial interval. 6. Steps 3-5 were repeated for a total of 4 trials (Block 1). 7. The mouse was returned to the transfer cage lined with a dry towel. It was allowed 5 minutes to rest. 8 Steps 3-5 were repeated for a total of 4 trials (Block 2). 9. The mouse was gently dried and returned to its home cage.\nThe probe session was conducted as follows: 1. The animal was brought into the testing room in a transfer cage. 2. Video recording was begun and the animal's ID card recorded. 3. The mouse was gently placed (i.e., not dropped) into the water at the appropriate start location (N, S, E, or W) facing the pool wall. 4. The mouse was allowed to swim freely for 60 seconds. 5. The mouse was gently dried and returned to its home cage."}, "[3]": {"conditions": "Macias-Barragan J, et al.; cited from earlier work"}, "[4]": {"test": "Body weight monitoring after surgery", "format": "in vivo, Male C57BI/6 mice", "conditions": "Acute and Chronic dose groups vs controls", "protocol": "Mice were weighed 24 hours after arrival, weekly prior to the initiation of pirfenidone administration, and then daily throughout the remainder of the study. Post-induction, animals were assessed daily to monitor body condition, pain response, and general recovery parameters. • Test System: Male C57BI/6 mice • Number of Animals/Group: 12 animals per group (total of 48 mice) • Age: Cohort 1: 12 weeks at arrival • Cohort 2: 10 weeks at arrival • Model Induction: Performed at 14 weeks of age • Weight: 31.6±0.42 SEM g at time of surgery • Allocation: Animals were pseudo-randomly assigned to treatment groups balanced for weight • Health inspection: A health inspection was performed by a clinical veterinarian prior to the commencement of the study.\nMice were weighed 24 hours after arrival, weekly prior to the initiation of Test Article administration, and then daily throughout the remainder of the study."}},
  "data": [
    {"smiles": "Cc1ccc(=O)n(-c2ccccc2)c1", "note": "[pirfenidone, 5-methyl-1-phenyl-2-(1H)-pyridone]", "values": [
      {"measurement": "Stability in vehicle", "setting": "[1]; 33.33 mg/mL (low dose)", "result": "≥ 8", "unit": "days"},
      {"measurement": "Stability in vehicle", "setting": "[1]; 66.67 mg/ml (high dose)", "result": "≥ 8", "unit": "days"},
      {"measurement": "mean terminal half-life", "setting": "[2]", "result": "approximately 3 hours"},
      {"measurement": "latency to platform, overall (block x treatment)", "setting": "mouse model of (POCD); Acute vs Disease Controls, p=0.028", "result": "statistically significant decrease in latency to platform"},
      {"measurement": "latency to platform, Block 1", "setting": "mouse model of (POCD); Acute vs Disease Controls, p=0.04, Tukey's HSD", "result": "found the platform faster than Disease Controls only"},
      {"measurement": "decrease in time to platform between blocks (spatial memory)", "setting": "mouse model of (POCD); Acute, p=0.61, paired t-test", "result": "not seen"},
      {"measurement": "latency to platform, Block 1", "setting": "mouse model of (POCD); Chronic compared to both Disease and Normal Controls, p=0.02 and p=0.03, Tukey's HSD", "result": "statistically significant decrease in latency to platform"},
      {"measurement": "latency to platform, overall (block x treatment)", "setting": "mouse model of (POCD); Chronic vs Disease Controls, p=0.052", "result": "statistically significant decrease in latency to platform"},
      {"measurement": "decrease in time to platform between blocks (spatial memory)", "setting": "mouse model of (POCD); Chronic, p=0.54, paired t-test", "result": "not seen"},
      {"measurement": "latency to platform, Block 2, between groups", "setting": "mouse model of (POCD); all groups, p=0.117, one-way ANOVA", "result": "no between groups main effect"},
      {"measurement": "crossing of the blood brain barrier", "setting": "[3]", "result": "can cross the blood brain barrier"},
      {"measurement": "weight loss at 24 hours post-surgery", "setting": "[4]", "result": "did not differ between groups"}
    ]}
  ]
}
